Measured values reported in patent US4468511A, “C-20- And C-23-Modified macrolide derivatives” (Eli Lilly and Company, priority 1983, dated 1984).
≈ marks a conversion by molar mass, not a printed value. Like-named read-outs stand apart in the source and are kept apart here.

What was measured:
Assay type in all cases: cell-based
[1] = test system: Staphylococcus epidermidis EPI1; assay: microbe, parasite or virus in culture; settings: Staphylococcus epidermidis, EPI1
Description: (§1) The MIC's in Table II were determined by standard agar-dilution assays. The MIC's in Table III were obtained using a conventional broth-dilution microtiter test.

[2] = test system: Staphylococcus aureus S13E; assay: microbe, parasite or virus in culture
Description: as §1

[3] = test system: Klebsiella pneumoniae X26; assay: MIC, standard agar-dilution assay
Description: (§2) Certain of the derivatives are active against some gram-negative bacteria, such as Pasteurella species. The MIC's in Table II were determined by standard agar-dilution assays. The MIC's in Table III were obtained using a conventional broth-dilution microtiter test.

[4] = test system: Staphylococcus aureus X1.1; assay: MIC, standard agar-dilution assay; settings: Staphylococcus aureus, X1.1
Description: as §2

Escherichia coli TEM = assay: MIC, standard agar-dilution assay; settings: agar-dilution; Escherichia coli TEM; read-out: MIC
Description: as §2

[5] = test system: Streptococcus pyogenes 9960; assay: MIC, standard agar-dilution assay
Description: as §2

[6] = test system: Streptococcus pyogenes C203; assay: MIC, standard agar-dilution assay
Description: as §2

[7] = test system: Streptococcus pneumoniae Park I; assay: MIC, standard agar-dilution assay; settings: Streptococcus pneumoniae
Description: as §2

[8] = test system: Staphylococcus aureus V41; assay: MIC, standard agar-dilution assay; settings: Staphylococcus aureus, V41
Description: as §2

[9] = test system: Streptococcus Group D X66; assay: MIC, standard agar-dilution assay
Description: as §2

Escherichia coli EC14 = assay: MIC, standard agar-dilution assay
Description: as §2

[10] = test system: Klebsiella pneumoniae KAE; assay: MIC, standard agar-dilution assay; settings: agar-dilution; Klebsiella pneumoniae KAE; read-out: MIC
Description: as §2

[11] = test system: Haemophilus influenzae C.L.; assay: MIC, standard agar-dilution assay
Description: as §1

[12] = test system: Haemophilus influenzae 76; assay: MIC, standard agar-dilution assay
Description: as §1

[13] = test system: Staphylococcus aureus X400; assay: MIC, standard agar-dilution assay
Description: as §1

Streptococcus sp. 80 = assay: MIC, conventional broth-dilution microtiter test; settings: broth-dilution microtiter; Streptococcus sp. 80; read-out: MIC
Description: as §2

[14] = test system: Pasteurella multocida 17E; assay: MIC, conventional broth-dilution microtiter test; settings: broth-dilution microtiter; Pasteurella multocida 17E, Bovine isolate; read-out: MIC
Description: as §2

[15] = test system: Mycoplasma gallisepticum 41313; assay: MIC, conventional broth-dilution microtiter test; settings: Mycoplasmoides gallisepticum; broth-dilution microtiter; Mycoplasma gallisepticum 41313, Resistant strain; read-out: MIC
Description: as §2

[16] = test system: Mycoplasma gallisepticum 34159; assay: MIC, conventional broth-dilution microtiter test; settings: Mycoplasmoides gallisepticum; broth-dilution microtiter; Mycoplasma gallisepticum 34159, Resistant strain; read-out: MIC
Description: as §2

[17] = test system: Pasteurella multocida 68C; assay: MIC, conventional broth-dilution microtiter test; settings: broth-dilution microtiter; Pasteurella multocida 68C; read-out: MIC
Description: as §2

[18] = test system: Pasteurella hemolytica 41D; assay: MIC, conventional broth-dilution microtiter test
Description: as §2

[19] = test system: Pasteurella hemolytica 22C; assay: MIC, conventional broth-dilution microtiter test
Description: as §2

[20] = test system: Pasteurella multocida 22A; assay: MIC, conventional broth-dilution microtiter test; settings: broth-dilution microtiter; Pasteurella multocida 22A; read-out: MIC
Description: as §2

[21] = test system: Pasteurella hemolytica 23C; assay: MIC, conventional broth-dilution microtiter test
Description: as §2

Mycoplasma hyorhinis = assay: MIC, conventional broth-dilution microtiter test; settings: Mycoplasma
Description: as §2

Staphylococcus aureus = assay: MIC, conventional broth-dilution microtiter test
Description: as §2

[22] = test system: Pasteurella multocida 60A; assay: MIC, conventional broth-dilution microtiter test; settings: broth-dilution microtiter; Pasteurella multocida 60A, Avian isolate; read-out: MIC
Description: as §2

Mycoplasma gallisepticum = assay: MIC, conventional broth-dilution microtiter test; settings: Mycoplasmoides gallisepticum
Description: as §2

[23] = test system: Pasteurella multocida 40G; assay: MIC, conventional broth-dilution microtiter test; settings: broth-dilution microtiter; Pasteurella multocida 40G; read-out: MIC
Description: as §2

[24] = test system: Staphylococcus epidermidis EPI2; assay: MIC, standard agar-dilution assay; settings: Staphylococcus epidermidis, EPI2
Description: as §1

[25] = agar-dilution, Klebsiella pneumoniae X26, read-out: MIC
[26] = agar-dilution, Streptococcus 9960, read-out: MIC
[27] = agar-dilution, Streptococcus pyogenes C203, read-out: MIC
[28] = agar-dilution, Streptococcus Group D X66, read-out: MIC
[29] = agar-dilution, Escherichia coli EC14, read-out: MIC
[30] = agar-dilution, Haemophilus influenzae C.L., Ampicillin-sensitive strain, read-out: MIC
[31] = agar-dilution, Haemophilus influenzae 76, Ampicillin-resistant strain, read-out: MIC
[32] = agar-dilution, Staphylococcus aureus X400, Methicillin-resistant strain, read-out: MIC

SMILES: CCC1OC(=O)CC(O)C(C)C(OC2OC(C)C(O)C(N(C)C)C2O)C(CCN2C(=O)c3ccccc3C2=O)CC(C)C(=O)C=CC(C)=CC1CN1C(=O)c2ccccc2C1=O (stereo not shown) [Compound 31, 20,23-Di-N-Phthalimido-20,23-dideoxy-20-dihydro-OMT]
- MIC [1]: 4 µg/mL (≈ 4.66 µM)
- MIC [2]: 4 µg/mL (≈ 4.66 µM)
- MIC [3, 25]: > 128 µg/mL
- MIC [4]: 4 µg/mL (≈ 4.66 µM)
- MIC (Escherichia coli TEM): > 128 µg/mL
- MIC [5, 26]: 16 µg/mL (≈ 18.6 µM)
- MIC [6, 27]: 16 µg/mL (≈ 18.6 µM)
- MIC [7]: 2 µg/mL (≈ 2.33 µM)
- MIC [8]: 4 µg/mL (≈ 4.66 µM)
- MIC [9, 28]: 8 µg/mL (≈ 9.32 µM)
- MIC (Escherichia coli EC14; [29]): > 128 µg/mL
- MIC [10]: > 128 µg/mL
- MIC [11, 30]: > 128 µg/mL
- MIC [12, 31]: > 128 µg/mL
- MIC [13, 32]: 16 µg/mL (≈ 18.6 µM)
- MIC (Streptococcus sp. 80): 12.5 µg/mL (≈ 14.6 µM)
- MIC [14]: > 50 µg/mL
- MIC [15]: 25 µg/mL (≈ 29.1 µM)
- MIC [16]: 25 µg/mL (≈ 29.1 µM)
- MIC [17]: > 50 µg/mL
- MIC ([18]; broth-dilution microtiter, Pasteurella hemolytica 41D, read-out: MIC): > 50 µg/mL
- MIC ([19]; broth-dilution microtiter, Pasteurella hemolytica 22C, read-out: MIC): > 50 µg/mL
- MIC [20]: > 50 µg/mL
- MIC ([21]; broth-dilution microtiter, Pasteurella hemolytica 23C, read-out: MIC): > 50 µg/mL
- MIC (Mycoplasma hyorhinis): 50 µg/mL (≈ 58.3 µM)
- MIC (Staphylococcus aureus): 12.5 µg/mL (≈ 14.6 µM)
- MIC [22]: > 50 µg/mL
- MIC (Mycoplasma gallisepticum): 12.5 µg/mL (≈ 14.6 µM)
- MIC [23]: > 50 µg/mL

SMILES: CCC1CC(C)C(=O)C=CC(C)=CC(COC(C)=O)C(CC)OC(=O)CC(O)C(C)C1OC1OC(C)C(OC(C)=O)C(N(C)C)C1OC(C)=O (stereo not shown) [Compound 40, 2',4',23-Tri-O-acetyl-20-deoxy-20-dihydro-OMT]
- MIC [1]: 4 µg/mL (≈ 5.63 µM)
- MIC [2]: 4 µg/mL (≈ 5.63 µM)
- MIC [3, 25]: 16 µg/mL (≈ 22.5 µM)
- MIC [4]: 4 µg/mL (≈ 5.63 µM)
- MIC (Escherichia coli TEM): > 128 µg/mL
- MIC [5, 26]: 8 µg/mL (≈ 11.3 µM)
- MIC [6, 27]: 16 µg/mL (≈ 22.5 µM)
- MIC [7]: 4 µg/mL (≈ 5.63 µM)
- MIC [8]: 4 µg/mL (≈ 5.63 µM)
- MIC [9, 28]: 8 µg/mL (≈ 11.3 µM)
- MIC (Escherichia coli EC14; [29]): > 128 µg/mL
- MIC [10]: > 128 µg/mL
- MIC [24]: 4 µg/mL (≈ 5.63 µM)
- MIC [13, 32]: 16 µg/mL (≈ 22.5 µM)
- MIC (Streptococcus sp. 80): 12.5 µg/mL (≈ 17.6 µM)
- MIC [14]: 25 µg/mL (≈ 35.2 µM)
- MIC [15]: > 50 µg/mL
- MIC [16]: > 50 µg/mL
- MIC [17]: 12.5 µg/mL (≈ 17.6 µM)
- MIC ([18]; Pasteurella, 41D): 50 µg/mL (≈ 70.4 µM)
- MIC ([19]; Pasteurella, 22C): 50 µg/mL (≈ 70.4 µM)
- MIC [20]: 25 µg/mL (≈ 35.2 µM)
- MIC ([21]; Pasteurella, 23C): 50 µg/mL (≈ 70.4 µM)
- MIC (Mycoplasma hyorhinis): 50 µg/mL (≈ 70.4 µM)
- MIC (Staphylococcus aureus): 6.25 µg/mL (≈ 8.8 µM)
- MIC [22]: 12.5 µg/mL (≈ 17.6 µM)
- MIC (Mycoplasma gallisepticum): 6.25 µg/mL (≈ 8.8 µM)
- MIC [23]: 25 µg/mL (≈ 35.2 µM)

SMILES: CCC1OC(=O)CC(O)C(C)C(OC2OC(C)C(O)C(N(C)C)C2O)C(CCO)CC(C)C(=O)C=CC(C)=CC1COC(=O)CCc1ccccc1 (stereo not shown) [Compound 52, 20-Dihydro-23-O-phenylpropionyl-OMT]
- MIC [1]: 0.5 µg/mL (≈ 0.683 µM)
- MIC [2]: 0.5 µg/mL (≈ 0.683 µM)
- MIC ([3]; Klebsiella pneumoniae, X26): 4 µg/mL (≈ 5.47 µM)
- MIC [4]: 0.5 µg/mL (≈ 0.683 µM)
- MIC (Escherichia coli TEM): 8 µg/mL (≈ 10.9 µM)
- MIC [5, 26]: 2 µg/mL (≈ 2.73 µM)
- MIC ([6]; Streptococcus pyogenes, C203): 0.25 µg/mL (≈ 0.342 µM)
- MIC [7]: 0.25 µg/mL (≈ 0.342 µM)
- MIC [8]: 0.5 µg/mL (≈ 0.683 µM)
- MIC [9]: 1 µg/mL (≈ 1.37 µM)
- MIC (Escherichia coli EC14; Escherichia coli, EC14): 64 µg/mL (≈ 87.4 µM)
- MIC [10]: > 128 µg/mL
- MIC [11, 30]: 8 µg/mL (≈ 10.9 µM)
- MIC [12, 31]: 8 µg/mL (≈ 10.9 µM)
- MIC [24]: 0.5 µg/mL (≈ 0.683 µM)
- MIC ([13]; Staphylococcus aureus, X400): 1 µg/mL (≈ 1.37 µM)

SMILES: CCC1OC(=O)CC(O)C(C)C(OC2OC(C)C(O)C(N(C)C)C2O)C(CCN(c2ccccc2)c2ccccc2)CC(C)C(=O)C=CC(C)=CC1CO (stereo not shown) [Compound 56, 20-Diphenylamino-20-deoxy-20-dihydro-OMT]
- MIC [1]: 2 µg/mL (≈ 2.66 µM)
- MIC [2]: 2 µg/mL (≈ 2.66 µM)
- MIC [4]: 4 µg/mL (≈ 5.33 µM)
- MIC (Escherichia coli TEM): > 128 µg/mL
- MIC [5]; 9960: 8 µg/mL (≈ 10.7 µM)
- MIC ([6]; Streptococcus pyogenes, C203): 2 µg/mL (≈ 2.66 µM)
- MIC [7]: 1 µg/mL (≈ 1.33 µM)
- MIC [8]: 2 µg/mL (≈ 2.66 µM)
- MIC [9]: 4 µg/mL (≈ 5.33 µM)
- MIC (Escherichia coli EC14; [29]): > 128 µg/mL
- MIC [10]: > 128 µg/mL
- MIC ([11]; Haemophilus influenzae): 32 µg/mL (≈ 42.6 µM)
- MIC ([12]; Haemophilus influenzae, 76): 16 µg/mL (≈ 21.3 µM)
- MIC [24]: 1 µg/mL (≈ 1.33 µM)
- MIC ([13]; Staphylococcus aureus, X400): 4 µg/mL (≈ 5.33 µM)
